Data as given in patent US9688676B2, “Tyrosine kinase inhibitors” (PRINCIPIA BIOPHARMA INC., priority 2015, dated 2017).
pIC50: −log10 of the molar value.

What was measured:
BTK [1] = biological target: T1, BTK (Homo sapiens (Human), UniProt Q06187); experiment: BTK enzymatic activity assay (Caliper-based kinase assay); format: biochemical; conditions: human recombinant BTK 0.5 nM, ATP 16 μM, 3 h room temperature
Experimental: A Caliper-based kinase assay (Caliper Life Sciences, Hopkinton, Mass.) was used to measure inhibition of BTK kinase activity of a compound of the present disclosure. […] The reaction was then terminated with EDTA, final concentration 20 mM and the phosphorylated reaction product was quantified on a Caliper Desktop Profiler (Caliper LabChip 3000). […] This value is presented as the IC50.

BTK [2] = biological target: T1, BTK; experiment: Determination of drug-kinase residence time (TR-FRET tracer competition, occupancy after washout); format: binding; conditions: 1.5 μM compound, 500 nM BTK; for % occupany at 1 h: 1 h of washout; for % occupany at 6 h: 6 h of washout; for % occupany at 24 h: 24 h of washout
Experimental: The experiment was conducted in a buffer consisting of 50 mM Hepes pH 7.5, 10 mM MgCl2, 0.01% Triton X-100, and 1 mM EGTA.
The mixture was then diluted 5-fold by addition of 40 μL of buffer. […] In order to probe for reversibility of the kinase-compound binding interaction, a competition solution containing both a high affinity fluorescent tracer and an antibody coupled to Europium was prepared. […] The competition solution also contained 80 nM of an Anti-polyhistidine antibody coupled to Europium (Invitrogen Cat. #PV5596) which is designed to bind the polyhistidine purification tag in BTK.
It is to be expected that covalent and slow dissociating inhibitors will block binding of the tracer while rapidly dissociating non-covalent inhibitors will not. […] Data were plotted at percentage of signal obtained in the absence of competitor compound. The background signal was obtained by omission of BTK from the reaction. […] If the compound is a reversible covalent inhibitor, the tracer will bind the target as the compound dissociates from the target.

T1 sequence (Q06187 whole entry): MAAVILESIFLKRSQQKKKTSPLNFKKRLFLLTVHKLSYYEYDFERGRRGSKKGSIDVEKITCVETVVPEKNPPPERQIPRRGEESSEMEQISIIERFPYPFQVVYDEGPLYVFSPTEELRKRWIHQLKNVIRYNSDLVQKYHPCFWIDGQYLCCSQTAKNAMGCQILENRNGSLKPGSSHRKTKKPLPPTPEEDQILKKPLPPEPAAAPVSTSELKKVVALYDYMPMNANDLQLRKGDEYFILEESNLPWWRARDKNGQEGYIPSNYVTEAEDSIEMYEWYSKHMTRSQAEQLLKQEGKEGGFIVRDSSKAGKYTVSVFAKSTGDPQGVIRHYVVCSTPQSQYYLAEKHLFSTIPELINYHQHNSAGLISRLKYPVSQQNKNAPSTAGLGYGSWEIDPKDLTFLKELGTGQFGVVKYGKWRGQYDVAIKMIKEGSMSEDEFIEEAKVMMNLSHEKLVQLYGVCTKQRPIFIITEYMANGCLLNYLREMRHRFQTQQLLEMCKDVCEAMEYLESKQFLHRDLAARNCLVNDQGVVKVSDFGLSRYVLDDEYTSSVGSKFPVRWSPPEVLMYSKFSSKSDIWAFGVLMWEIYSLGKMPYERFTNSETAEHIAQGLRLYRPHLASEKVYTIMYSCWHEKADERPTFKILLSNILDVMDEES

pIC50 (BTK [1])	% occupany at 1 h (BTK [2]) [%]	% occupany at 6 h (BTK [2]) [%]	% occupany at 24 h (BTK [2]) [%]	Structure (SMILES)
8.74	61.932	−1.3946	−12.344	CN1CCC(C(C)(C)C=C(C#N)C(=O)N2CCC[C@@H](n3c(=O)n(-c4ccc(Oc5ccccc5)cc4)c4c(N)nccc43)C2)CC1 [Compound 7, (R)-2-(3-(4-amino-2-oxo-3-(4-phenoxyphenyl)-2,3-dihydro-1H-imidazo[4,5-c]pyridin-1-yl)piperidine-1-carbonyl)-4-methyl-4-(1-methylpiperidin-4-yl)pent-2-enenitrile]
7.62	93.335	89.195	80.873	N#CC(=CC1CCC1)C(=O)N1CCC[C@@H](n2c(=O)n(-c3ccc(Oc4ccccc4)cc3)c3c(N)nccc32)C1 [Compound 8, (R)-2-(3-(4-amino-2-oxo-3-(4-phenoxyphenyl)-2,3-dihydro-1H-imidazo[4,5-c]pyridin-1-yl)piperidine-1-carbonyl)-3-cyclobutylacrylonitrile]
7.88	81.247	78.623	74.744	CC#CC(=O)N1CCC[C@@H](n2c(=O)n(-c3ccc(Oc4ccccc4)cc3)c3c(N)nccc32)C1 [Compound 17, (R)-4-amino-1-(1-(but-2-ynoyl)piperidin-3-yl)-3-(4-phenoxyphenyl)-1H-imidazo[4,5-c]pyridin-2(3H)-one]
8.43	93.065	73.513	31.704	CN1CCN(C(C)(C)C=C(C#N)C(=O)N2CCC[C@@H](n3c(=O)n(-c4ccc(Oc5ccccc5)cc4)c4c(N)nccc43)C2)CC1=O [Compound 18, (R)-2-(3-(4-amino-2-oxo-3-(4-phenoxyphenyl)-2,3-dihydro-1H-imidazo[4,5-c]pyridin-1-yl)piperidine-1-carbonyl)-4-methyl-4-(4-methyl-3-oxopiperazin-1-yl)pent-2-enenitrile]

The next lines start with the compound.

Structure (SMILES)	pIC50 (BTK [1])	% occupany at 1 h (BTK [2]) [%]	% occupany at 6 h (BTK [2]) [%]	% occupany at 24 h (BTK [2]) [%]
COCCN1CCN(C(C)(C)C=C(C#N)C(=O)N2CCC[C@@H](n3c(=O)n(-c4ccc(Oc5ccccc5)cc4)c4c(N)nccc43)C2)CC1 [Compound 9, (R)-2-(3-(4-amino-2-oxo-3-(4-phenoxyphenyl)-2,3-dihydro-1H-imidazo[4,5-c]pyridin-1-yl)piperidine-1-carbonyl)-4-(4-(2-methoxyethyl)piperazin-1-yl)-4-methylpent-2-enenitrile]	8.11	93.363	70.733	31.4
COC(=O)N1CCN(C(C)(C)C=C(C#N)C(=O)N2CCC[C@@H](n3c(=O)n(-c4ccc(Oc5ccccc5)cc4)c4c(N)nccc43)C2)CC1 [Compound 10, (R)-methyl 4-(5-(3-(4-amino-2-oxo-3-(4-phenoxyphenyl)-2,3-dihydro-1H-imidazo[4,5-c]pyridin-1-yl)piperidin-1-yl)-4-cyano-2-methyl-5-oxopent-3-en-2-yl)piperazine-1-carboxylate]	8.15	94.392	77.985	49.145
CC(C)(C)C=C(C#N)C(=O)N1CCC[C@H]1Cn1c(=O)n(-c2ccc(Oc3ccccc3)cc2)c2c(N)nccc21 [Compound 12, (S)-2-(2-((4-amino-2-oxo-3-(4-phenoxyphenyl)-2,3-dihydro-1H-imidazo[4,5-c]pyridin-1-yl)methyl)pyrrolidine-1-carbonyl)-4,4-dimethylpent-2-enenitrile]	8.18	95.906	96.44	90.847
CC(C)(C=C(C#N)C(=O)N1CCC[C@H]1Cn1c(=O)n(-c2ccc(Oc3ccccc3)cc2)c2c(N)nccc21)N1CCN(C2COC2)CC1 [Compound 13, (S)-2-(2-((4-amino-2-oxo-3-(4-phenoxyphenyl)-2,3-dihydro-1H-imidazo[4,5-c]pyridin-1-yl)methyl)pyrrolidine-1-carbonyl)-4-methyl-4-(4-(oxetan-3-yl)piperazin-1-yl)pent-2-enenitrile]	7.68	91.54	83.963	49.152
CC(C)(C=C(C#N)C(=O)N1CCC[C@H]1Cn1c(=O)n(-c2ccc(Oc3ccccc3)cc2)c2c(N)nccc21)N1CCOCC1 [Compound 14, (S)-2-(2-((4-amino-2-oxo-3-(4-phenoxyphenyl)-2,3-dihydro-1H-imidazo[4,5-c]pyridin-1-yl)methyl)pyrrolidine-1-carbonyl)-4-methyl-4-morpholinopent-2-enenitrile]	7.76	91.481	76.396	22.922
COC(=O)N1CCN(C(C)(C)C=C(C#N)C(=O)N2CCC[C@H]2Cn2c(=O)n(-c3ccc(Oc4ccccc4)cc3)c3c(N)nccc32)CC1 [Compound 15, (S)-methyl 4-(5-(2-((4-amino-2-oxo-3-(4-phenoxyphenyl)-2,3-dihydro-1H-imidazo[4,5-c]pyridin-1-yl)methyl)pyrrolidin-1-yl)-4-cyano-2-methyl-5-oxopent-3-en-2-yl)piperazine-1-carboxylate]	7.14	91.927	85.356	50.188
